Experimental data published in patent US20210268030A1, “FIBROADIPOGENIC PROGENITOR-DERIVED EXOSOMES FOR REGENERATION OF DYSTROPHIC MUSCLES” (EXOFIX S.R.L., priority 2018, published 2021).

System: miR-206
Experiment: miR-206 in situ hybridization of tibialis anterior sections
Format: in vivo
Settings: young mdx mice (1.5 months of age)
Experimental: Animals were used at the specified age and treated for the indicated periods with daily intra peritoneal injections of Trichostatin A, TSA (0.6 mg/kg/day; #T8552, Sigma), dissolved in phospate-saline solution or in phospate-saline alone as vehicle control (CTR). Muscle injury was performed by intramuscular injection in Tibliais Anterior (TA) of Cardiotoxin—CTX− (10 μM, 10 mg/mL) (#L8102, Lotaxan Valence, France, http://www.latoxan.com), 3 days before mice sacrifice. […]
Of note, transgenic miR-206 upregulation has been exploited as tool for the treatment of DMD and other muscular disorders (Liu et al., 2012; Williams et al., 2009; Fry et al., 2017). […] The same pattern could be observed in mdx mice, in which an abundant miR-206 signal was detected in the interstitium of tibialis anterior muscles, overlapping with the immunofluorescence staining of the FAP's marker Sca-1 (FIG. 3H). […] We performed a quantitative assessment of exosomal miR-206, by isolating whole tibialis anterior (TA) muscles from TSA-treated mdx muscle or untreated control mdx mice, followed by gentle dissociation and exosome isolation.

For `CC(/C=C/C(=O)NO)=C\[C@@H](C)C(=O)c1ccc(N(C)C)cc1` [TSA, Trichostatin A], the “amount of interstitial miR-206 signal associated with Sca-1 staining” value was “increased”.
